Results reported in PubChem BioAssay (NCI).
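A five-concentration, 48-hour dose response in 96-well plates underlies each endpoint, interpolated linearly between surrounding concentrations. TGI marks complete inhibition of growth.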

Assays:
Experiment in all cases: inhibition of tumour cell growth, NCI panel, 48 h
786-0 renal = test system: 786-0 renal
A498 renal = test system: A498 renal
A549 NSCLC = test system: A549 NSCLC
ACHN renal = test system: ACHN renal
BT-549 breast = test system: BT-549 breast
CAKI-1 renal = test system: CAKI-1 renal
CCRF-CEM leukemia = test system: CCRF-CEM leukemia
COLO 205 colon = test system: COLO 205 colon
DU-145 prostate = test system: DU-145 prostate
EKVX NSCLC = test system: EKVX NSCLC
HCC-2998 colon = test system: HCC-2998 colon
HCT-116 colon = test system: HCT-116 colon
HCT-15 colon = test system: HCT-15 colon
HOP-62 NSCLC = test system: HOP-62 NSCLC
HOP-92 NSCLC = test system: HOP-92 NSCLC
HS 578T breast = test system: HS 578T breast
K-562 leukemia = test system: K-562 leukemia
KM12 colon = test system: KM12 colon
LOX IMVI melanoma = test system: LOX IMVI melanoma
M14 melanoma = test system: M14 melanoma
MALME-3M melanoma = test system: MALME-3M melanoma
MCF7 breast = test system: MCF7 breast
MDA-MB-231 breast = test system: MDA-MB-231 breast
MDA-MB-435 = test system: MDA-MB-435
MDA-N = test system: MDA-N
MOLT-4 leukemia = test system: MOLT-4 leukemia
NCI-H226 lung = test system: NCI-H226 lung
NCI-H23 lung = test system: NCI-H23 lung
NCI-H460 lung = test system: NCI-H460 lung
NCI-H522 lung = test system: NCI-H522 lung
NCI/ADR-RES ovarian = test system: NCI/ADR-RES ovarian
OVCAR-3 ovarian = test system: OVCAR-3 ovarian
OVCAR-4 ovarian = test system: OVCAR-4 ovarian
OVCAR-5 ovarian = test system: OVCAR-5 ovarian
OVCAR-8 ovarian = test system: OVCAR-8 ovarian
PC-3 prostate = test system: PC-3 prostate
RPMI-8226 leukemia = test system: RPMI-8226 leukemia
RXF 393 renal = test system: RXF 393 renal
SF-268 CNS = test system: SF-268 CNS
SF-295 CNS = test system: SF-295 CNS
SF-539 CNS = test system: SF-539 CNS
SK-MEL-2 melanoma = test system: SK-MEL-2 melanoma
SK-MEL-28 melanoma = test system: SK-MEL-28 melanoma
SK-MEL-5 melanoma = test system: SK-MEL-5 melanoma
SK-OV-3 ovarian = test system: SK-OV-3 ovarian
SN12C renal = test system: SN12C renal
SNB-19 CNS = test system: SNB-19 CNS
SNB-75 CNS = test system: SNB-75 CNS
SR leukemia = test system: SR leukemia
SW-620 colon = test system: SW-620 colon
T-47D breast = test system: T-47D breast
TK-10 renal = test system: TK-10 renal
U251 CNS = test system: U251 CNS
UACC-257 melanoma = test system: UACC-257 melanoma
UACC-62 melanoma = test system: UACC-62 melanoma
UO-31 renal = test system: UO-31 renal
HL-60(TB) leukemia = test system: HL-60(TB) leukemia
HT29 colon = test system: HT29 colon
IGROV1 ovarian = test system: IGROV1 ovarian

`CC1OC(OC2C(O)COC(OC3C(C)OC(OC4C(OC(=O)[C@]56CCC(C)(C)C[C@@H]5C5=CCC7[C@@]8(C)C[C@H](O)[C@H](OC9OC(CO)C(O)C(O)C9O)[C@@](C)(CO)[C@@H]8CC[C@@]7(C)[C@]5(C)CC6)OCC(O)C4O)C(O)C3OC3OCC(O)C(O)C3O)C2O)C(O)C(O)C1O` (stereo partly drawn) gave a TGI (786-0 renal) of 29.2 µM, a TGI (A498 renal) of 32.7 µM and a TGI (A549 NSCLC) of 28.2 µM. It also gave a TGI (ACHN renal) of 36.1 µM, a TGI (BT-549 breast) of 52.6 µM and a TGI (CAKI-1 renal) of 26.8 µM. The TGI (CCRF-CEM leukemia) was 34.9 µM, the TGI (COLO 205 colon) was 19.3 µM and the TGI (DU-145 prostate) was 36.2 µM. The TGI (EKVX NSCLC) was 23.8 µM, the TGI (HCC-2998 colon) was 33.9 µM and the TGI (HCT-116 colon) was 38.5 µM. For the same molecule, the TGI (HCT-15 colon) was 51.4 µM, the TGI (HOP-62 NSCLC) was 35.4 µM and the TGI (HOP-92 NSCLC) was 44 µM. The TGI (HS 578T breast) was 63.9 µM, the TGI (K-562 leukemia) was over 100 µM and the TGI (KM12 colon) was 72.9 µM. The TGI (LOX IMVI melanoma) was 37 µM, the TGI (M14 melanoma) was 23.2 µM and the TGI (MALME-3M melanoma) was 54.7 µM. The TGI (MCF7 breast) was 43.8 µM, the TGI (MDA-MB-231 breast) was 31 µM and the TGI (MDA-MB-435) was 44.8 µM. The TGI (MDA-N) was 35.2 µM, the TGI (MOLT-4 leukemia) was 46 µM and the TGI (NCI-H226 lung) was 46.1 µM. The TGI (NCI-H23 lung) was 40.8 µM, the TGI (NCI-H460 lung) was 41.6 µM and the TGI (NCI-H522 lung) was 62.4 µM. For the same molecule, the TGI (NCI/ADR-RES ovarian) was 46 µM, the TGI (OVCAR-3 ovarian) was 37.9 µM and the TGI (OVCAR-4 ovarian) was 48.8 µM. For the same molecule, the TGI (OVCAR-5 ovarian) was 30.2 µM, the TGI (OVCAR-8 ovarian) was 37.3 µM and the TGI (PC-3 prostate) was 29.5 µM. It also gave a TGI (RPMI-8226 leukemia) of over 100 µM, a TGI (RXF 393 renal) of 34.1 µM and a TGI (SF-268 CNS) of 47.5 µM. The TGI (SF-295 CNS) was 39.2 µM, the TGI (SF-539 CNS) was 36.3 µM and the TGI (SK-MEL-2 melanoma) was 37.9 µM. It also gave a TGI (SK-MEL-28 melanoma) of 25.9 µM, a TGI (SK-MEL-5 melanoma) of 36.2 µM and a TGI (SK-OV-3 ovarian) of 34.7 µM. It also gave a TGI (SN12C renal) of 35 µM, a TGI (SNB-19 CNS) of 33.7 µM and a TGI (SNB-75 CNS) of 41.1 µM. For the same molecule, the TGI (SR leukemia) was 46.1 µM, the TGI (SW-620 colon) was 32.2 µM and the TGI (T-47D breast) was 44.8 µM. For the same molecule, the TGI (TK-10 renal) was 33 µM, the TGI (U251 CNS) was 39.1 µM and the TGI (UACC-257 melanoma) was 31.7 µM. It also gave a TGI (UACC-62 melanoma) of 41.1 µM and a TGI (UO-31 renal) of 17.6 µM.

`Cc1ccc(NN=NCCCCN=NNc2ccc(C)cc2)cc1` gave a TGI (A498 renal) of over 100 µM, a TGI (A549 NSCLC) of over 100 µM and a TGI (BT-549 breast) of over 100 µM. For the same molecule, the TGI (CAKI-1 renal) was over 100 µM, the TGI (CCRF-CEM leukemia) was 98.4 µM and the TGI (COLO 205 colon) was over 100 µM. For the same molecule, the TGI (DU-145 prostate) was over 100 µM, the TGI (EKVX NSCLC) was over 100 µM and the TGI (HCC-2998 colon) was over 100 µM. For the same molecule, the TGI (HCT-116 colon) was over 100 µM, the TGI (HCT-15 colon) was over 100 µM and the TGI (HL-60(TB) leukemia) was 30.3 µM. The TGI (HOP-62 NSCLC) was over 100 µM, the TGI (HOP-92 NSCLC) was over 100 µM and the TGI (HS 578T breast) was over 100 µM. The TGI (HT29 colon) was over 100 µM, the TGI (IGROV1 ovarian) was over 100 µM and the TGI (K-562 leukemia) was over 100 µM. The TGI (LOX IMVI melanoma) was over 100 µM, the TGI (M14 melanoma) was over 100 µM and the TGI (MALME-3M melanoma) was over 100 µM. For the same molecule, the TGI (MCF7 breast) was over 100 µM, the TGI (MDA-MB-231 breast) was over 100 µM and the TGI (MDA-MB-435) was over 100 µM. For the same molecule, the TGI (MDA-N) was over 100 µM, the TGI (MOLT-4 leukemia) was over 100 µM and the TGI (NCI-H226 lung) was over 100 µM. For the same molecule, the TGI (NCI-H23 lung) was 81.2 µM, the TGI (NCI-H460 lung) was over 100 µM and the TGI (NCI/ADR-RES ovarian) was over 100 µM. The TGI (OVCAR-3 ovarian) was over 100 µM, the TGI (OVCAR-4 ovarian) was over 100 µM and the TGI (OVCAR-5 ovarian) was over 100 µM. For the same molecule, the TGI (OVCAR-8 ovarian) was over 100 µM, the TGI (PC-3 prostate) was over 100 µM and the TGI (RXF 393 renal) was over 100 µM. For the same molecule, the TGI (SF-268 CNS) was over 100 µM, the TGI (SF-295 CNS) was over 100 µM and the TGI (SF-539 CNS) was over 100 µM. It also gave a TGI (SK-MEL-2 melanoma) of over 100 µM, a TGI (SK-MEL-28 melanoma) of over 100 µM and a TGI (SK-MEL-5 melanoma) of over 100 µM. It also gave a TGI (SK-OV-3 ovarian) of over 100 µM, a TGI (SN12C renal) of over 100 µM and a TGI (SNB-75 CNS) of over 100 µM. The TGI (SR leukemia) was over 100 µM, the TGI (SW-620 colon) was over 100 µM and the TGI (T-47D breast) was over 100 µM. The TGI (TK-10 renal) was 17.9 µM, the TGI (U251 CNS) was over 100 µM and the TGI (UACC-257 melanoma) was over 100 µM. It also gave a TGI (UACC-62 melanoma) of over 100 µM and a TGI (UO-31 renal) of 2.1 µM.

Work on `CC(=O)/C(N=Nc1ccc(-n2c(C)nc3ccccc3c2=O)cc1)=C(/C)O` yielded a TGI (786-0 renal) of over 100 µM, a TGI (A498 renal) of over 100 µM and a TGI (A549 NSCLC) of over 100 µM. For the same molecule, the TGI (ACHN renal) was over 100 µM, the TGI (BT-549 breast) was over 100 µM and the TGI (CAKI-1 renal) was over 100 µM. For the same molecule, the TGI (CCRF-CEM leukemia) was over 100 µM, the TGI (COLO 205 colon) was over 100 µM and the TGI (DU-145 prostate) was over 100 µM. It also gave a TGI (EKVX NSCLC) of over 100 µM, a TGI (HCT-116 colon) of over 100 µM and a TGI (HCT-15 colon) of over 100 µM. For the same molecule, the TGI (HL-60(TB) leukemia) was over 100 µM, the TGI (HOP-62 NSCLC) was over 100 µM and the TGI (HOP-92 NSCLC) was over 100 µM. It also gave a TGI (HS 578T breast) of over 100 µM, a TGI (HT29 colon) of over 100 µM and a TGI (IGROV1 ovarian) of over 100 µM. For the same molecule, the TGI (K-562 leukemia) was over 100 µM, the TGI (KM12 colon) was over 100 µM and the TGI (LOX IMVI melanoma) was over 100 µM. For the same molecule, the TGI (M14 melanoma) was over 100 µM, the TGI (MCF7 breast) was over 100 µM and the TGI (MDA-MB-231 breast) was over 100 µM. For the same molecule, the TGI (MDA-MB-435) was over 100 µM, the TGI (MDA-N) was over 100 µM and the TGI (MOLT-4 leukemia) was over 100 µM. The TGI (NCI-H226 lung) was over 100 µM, the TGI (NCI-H23 lung) was over 100 µM and the TGI (NCI-H460 lung) was over 100 µM. The TGI (NCI/ADR-RES ovarian) was over 100 µM, the TGI (OVCAR-3 ovarian) was over 100 µM and the TGI (OVCAR-5 ovarian) was over 100 µM. It also gave a TGI (OVCAR-8 ovarian) of over 100 µM, a TGI (PC-3 prostate) of over 100 µM and a TGI (RPMI-8226 leukemia) of over 100 µM. For the same molecule, the TGI (SF-268 CNS) was over 100 µM, the TGI (SF-295 CNS) was over 100 µM and the TGI (SF-539 CNS) was over 100 µM. For the same molecule, the TGI (SK-MEL-2 melanoma) was over 100 µM, the TGI (SK-MEL-28 melanoma) was over 100 µM and the TGI (SK-MEL-5 melanoma) was over 100 µM. The TGI (SK-OV-3 ovarian) was over 100 µM, the TGI (SN12C renal) was over 100 µM and the TGI (SNB-19 CNS) was over 100 µM. For the same molecule, the TGI (SNB-75 CNS) was over 100 µM, the TGI (SR leukemia) was over 100 µM and the TGI (SW-620 colon) was over 100 µM. The TGI (T-47D breast) was over 100 µM, the TGI (TK-10 renal) was over 100 µM and the TGI (U251 CNS) was over 100 µM. It also gave a TGI (UACC-257 melanoma) of over 100 µM, a TGI (UACC-62 melanoma) of over 100 µM and a TGI (UO-31 renal) of over 100 µM.
